Reference: patent US6355799B1, “Substituted benzene compounds, process for their preparation, and herbicidal and defoliant compositions containing them” (ISK Americas Incorporated, priority 1997, dated 2002)

Key:
Assay type in all cases: in vivo
[1] = system: redroot pigweed (Amaranthus retroflexus, AMARE); assay: Pre-emerge test, greenhouse herbicide activity screening; details: rating scale 0-100, 14 days after application
How it was run: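 Plants grown in 10 cm pots of sandy loam mix received acetone-dissolved compounds through a moving flat-fan nozzle. Doses ranged from 15 to 1000 g ai/ha. Pre-emerge pots were seeded one day earlier, post-emerge pots 8–21 days earlier. Fourteen days on, each pot was graded 0–100 for damage.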

[2] = system: barnyardgrass (Echinochloa crus-galli, ECHCG); assay: Post-emerge test, greenhouse herbicide activity screening; details: rating scale 0-100 (0 no damage, 100 complete death), 14 days after application
How it was run: (§1)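 Compounds in acetone were track-sprayed at 187 l/ha, 15–1000 g ai/ha, onto sandy loam pots. Pre-emerge seeds were sown one day before spraying, with surface watering afterwards. Post-emerge plants were at the 2–3 leaf stage and sprayed with 0.25% v/v non-ionic surfactant. Injury was rated 0–100 at 14 days.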

[3] = system: sicklepod (Cassia obtusifolia, CASOB); assay: as above; details: rating scale 0-100 (0 no damage, 100 complete death), 14 days after application
How it was run: as §1

[4] = system: common ragweed (Ambrosia artemisizfolia L., AMBEL); assay: as above; details: rating scale 0-100 (0 no damage, 100 complete death), 14 days after application
How it was run: as §1

[5] = system: velvetleaf (Abutilon theophrasti, ABUTH); assay: as above; details: rating scale 0-100 (0 no damage, 100 complete death), 14 days after application
How it was run: as §1

[6] = system: ivyleaf morningglory (Ipomoea hederacea, IPOHE); assay: as above; details: rating scale 0-100 (0 no damage, 100 complete death), 14 days after application
How it was run: as §1

[7] = system: large crabgrass (Digitaria sanguinalis, DIGSA); assay: as above; details: rating scale 0-100 (0 no damage, 100 complete death), 14 days after application
How it was run: as §1

[8] = system: lambsquarters (Chenopodium album, CHEAL); assay: as above; details: rating scale 0-100 (0 no damage, 100 complete death), 14 days after application
How it was run: as §1

[9] = system: johnsongrass (Sorghum halepense, SORHA); assay: as above; details: rating scale 0-100 (0 no damage, 100 complete death), 14 days after application
How it was run: as §1

[10] = system: green foxtail (Setaria viridis, SETVI); assay: as above; details: rating scale 0-100 (0 no damage, 100 complete death), 14 days after application
How it was run: as §1

[11] = system: redroot pigweed (Amaranthus retroflexus, AMARE); assay: as above; details: rating scale 0-100 (0 no damage, 100 complete death), 14 days after application
How it was run: as §1

[12] = system: upland rice (Oryza sp., var. Tebonnet, RICE); assay: Pre-emerge test, crop safety; details: rating scale 0-100, 14 days after application
How it was run: (§2)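 Sandy loam pots; pre-emerge: sown 1 d pre-spray, surface-watered after, then bottom-watered. Post-emerge: sown 8–21 d before, 2–3 leaf stage, + 0.25% v/v NIS, bottom-watered. Acetone, 187 l/ha track spray, 15–1000 g ai/ha. 0–100 injury score, day 14.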

[13] = system: field corn (Zea mays L., var. Dekalb 535, CORN); assay: Pre-emerge test, crop safety; details: rating scale 0-100, 14 days after application
How it was run: as §2

[14] = system: upland rice (Oryza sp., var. Tebonnet, RICE); assay: Post-emerge test, crop safety; details: rating scale 0-100 (0 no damage, 100 complete death), 14 days after application
How it was run: (§3)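 Compounds in acetone were track-sprayed at 15-1000 g ai/ha (187 l/ha) on sandy loam pots: pre-emerge one day after seeding, post-emerge at 2-3 leaf stage with 0.25% v/v non-ionic surfactant. Phytotoxicity was rated 14 days later on a 0 (no damage) to 100 (complete death) scale.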

[15] = system: field corn (Zea mays L., var. Dekalb 535, CORN); assay: Post-emerge test, crop safety; details: rating scale 0-100 (0 no damage, 100 complete death), 14 days after application
How it was run: as §3

[16] = system: barnyardgrass (Echinochloa crus-galli, ECHCG); assay: Pre-emerge test, greenhouse herbicide activity screening; details: rating scale 0-100, 14 days after application
How it was run: as §3

[17] = system: sicklepod (Cassia obtusifolia, CASOB); assay: as above; details: rating scale 0-100, 14 days after application
How it was run: as §3

[18] = system: velvetleaf (Abutilon theophrasti, ABUTH); assay: as above; details: rating scale 0-100, 14 days after application
How it was run: as §3

[19] = system: ivyleaf morningglory (Ipomoea hederacea, IPOHE); assay: as above; details: rating scale 0-100, 14 days after application
How it was run: as §3

[20] = system: large crabgrass (Digitaria sanguinalis, DIGSA); assay: as above; details: rating scale 0-100, 14 days after application
How it was run: as §3

[21] = system: lambsquarters (Chenopodium album, CHEAL); assay: as above; details: rating scale 0-100, 14 days after application
How it was run: as §3

[22] = system: johnsongrass (Sorghum halepense, SORHA); assay: as above; details: rating scale 0-100, 14 days after application
How it was run: as §3

[23] = system: green foxtail (Setaria viridis, SETVI); assay: as above; details: rating scale 0-100, 14 days after application
How it was run: as §3

## CCOC(=O)C(Br)Cc1c(OC)c(Cl)cc(F)c1-n1c(=O)cc(C(F)(F)F)n(C)c1=O (single isomer, unassigned) [14-32]
[1]; 63 g ai/ha
  Pre-emerge herbicidal activity, phytotoxicity rating AMARE: 100
[1]; 250 g ai/ha
  Pre-emerge herbicidal activity, phytotoxicity rating AMARE: 100
[2]; Rate 63 g ai/ha
  Post-emerge Herbicidal Activity, phytotoxicity rating ECHCG: 100
[2]; Rate 250 g ai/ha
  Post-emerge Herbicidal Activity, phytotoxicity rating ECHCG: 100
[3]; Rate 63 g ai/ha
  Post-emerge Herbicidal Activity, phytotoxicity rating CASOB: 20
[3]; Rate 250 g ai/ha
  Post-emerge Herbicidal Activity, phytotoxicity rating CASOB: 40
[4]; Rate 63 g ai/ha
  Post-emerge Herbicidal Activity, phytotoxicity rating AMBEL: 40
[4]; Rate 250 g ai/ha
  Post-emerge Herbicidal Activity, phytotoxicity rating AMBEL: 40
[5]; Rate 63 g ai/ha
  Post-emerge Herbicidal Activity, phytotoxicity rating ABUTH: 90
[5]; Rate 250 g ai/ha
  Post-emerge Herbicidal Activity, phytotoxicity rating ABUTH: 95
[6]; Rate 63 g ai/ha
  Post-emerge Herbicidal Activity, phytotoxicity rating IPOHE: 0
[6]; Rate 250 g ai/ha
  Post-emerge Herbicidal Activity, phytotoxicity rating IPOHE: 20
[7]; Rate 63 g ai/ha
  Post-emerge Herbicidal Activity, phytotoxicity rating DIGSA: 70
[7]; Rate 250 g ai/ha
  Post-emerge Herbicidal Activity, phytotoxicity rating DIGSA: 90
[8]; Rate 63 g ai/ha
  Post-emerge Herbicidal Activity, phytotoxicity rating CHEAL: 0
[8]; Rate 250 g ai/ha
  Post-emerge Herbicidal Activity, phytotoxicity rating CHEAL: 80
[9]; Rate 63 g ai/ha
  Post-emerge Herbicidal Activity, phytotoxicity rating SORHA: 0
[9]; Rate 250 g ai/ha
  Post-emerge Herbicidal Activity, phytotoxicity rating SORHA: 10
[10]; Rate 63 g ai/ha
  Post-emerge Herbicidal Activity, phytotoxicity rating SETVI: 40
[10]; Rate 250 g ai/ha
  Post-emerge Herbicidal Activity, phytotoxicity rating SETVI: 70
[11]; Rate 63 g ai/ha
  Post-emerge Herbicidal Activity, phytotoxicity rating AMARE: 95
[11]; Rate 250 g ai/ha
  Post-emerge Herbicidal Activity, phytotoxicity rating AMARE: 100
[12]; 63 g ai/ha
  Pre-emerge phytotoxicity rating, crop damage RICE: 0
[12]; 250 g ai/ha
  Pre-emerge phytotoxicity rating, crop damage RICE: 10
[13]; 63 g ai/ha
  Pre-emerge phytotoxicity rating, crop damage CORN: 0
[13]; 250 g ai/ha
  Pre-emerge phytotoxicity rating, crop damage CORN: 0
[14]; Rate 63 g ai/ha
  Post-emerge phytotoxicity rating RICE (crop damage): 0
[14]; Rate 250 g ai/ha
  Post-emerge phytotoxicity rating RICE (crop damage): 0
[15]; Rate 63 g ai/ha
  Post-emerge phytotoxicity rating CORN (crop damage): 0
[15]; Rate 250 g ai/ha
  Post-emerge phytotoxicity rating CORN (crop damage): 0
[16]; 63 g ai/ha
  Pre-emerge herbicidal activity, phytotoxicity rating ECHCG: 0
[16]; 250 g ai/ha
  Pre-emerge herbicidal activity, phytotoxicity rating ECHCG: 30
[17]; 63 g ai/ha
  Pre-emerge herbicidal activity, phytotoxicity rating CASOB: 0
[17]; 250 g ai/ha
  Pre-emerge herbicidal activity, phytotoxicity rating CASOB: 30
[18]; 63 g ai/ha
  Pre-emerge herbicidal activity, phytotoxicity rating ABUTH: 10
[18]; 250 g ai/ha
  Pre-emerge herbicidal activity, phytotoxicity rating ABUTH: 50
[19]; 63 g ai/ha
  Pre-emerge herbicidal activity, phytotoxicity rating IPOHE: 0
[19]; 250 g ai/ha
  Pre-emerge herbicidal activity, phytotoxicity rating IPOHE: 0
[20]; 63 g ai/ha
  Pre-emerge herbicidal activity, phytotoxicity rating DIGSA: 20
[20]; 250 g ai/ha
  Pre-emerge herbicidal activity, phytotoxicity rating DIGSA: 100
[21]; 63 g ai/ha
  Pre-emerge herbicidal activity, phytotoxicity rating CHEAL: 80
[21]; 250 g ai/ha
  Pre-emerge herbicidal activity, phytotoxicity rating CHEAL: 100
[22]; 63 g ai/ha
  Pre-emerge herbicidal activity, phytotoxicity rating SORHA: 0
[22]; 250 g ai/ha
  Pre-emerge herbicidal activity, phytotoxicity rating SORHA: 20
[23]; 63 g ai/ha
  Pre-emerge herbicidal activity, phytotoxicity rating SETVI: 0
[23]; 250 g ai/ha
  Pre-emerge herbicidal activity, phytotoxicity rating SETVI: 40
